Reference: publication PMC9865645, “The Impact of N^ε-Acryloyllysine Piperazides on the Conformational Dynamics of Transglutaminase 2” (International Journal of Molecular Sciences, 2023)

How the values were obtained:
hTGase 2 = target: T1, hTGase 2 (Homo sapiens, UniProt P21980); experiment: switchSENSE static mode (fluorescence proximity sensing): binding kinetics of GTPγS to hTGase 2-dsDNA lever; settings: for koff / kon: 20 nM GTPγS, best-fit ± standard error; for Kd: quotient koff/kon
T1 construct: purchased Zedira (Darmstadt, Germany) T022, lot 0716a
T1 sequence (P21980 1-687): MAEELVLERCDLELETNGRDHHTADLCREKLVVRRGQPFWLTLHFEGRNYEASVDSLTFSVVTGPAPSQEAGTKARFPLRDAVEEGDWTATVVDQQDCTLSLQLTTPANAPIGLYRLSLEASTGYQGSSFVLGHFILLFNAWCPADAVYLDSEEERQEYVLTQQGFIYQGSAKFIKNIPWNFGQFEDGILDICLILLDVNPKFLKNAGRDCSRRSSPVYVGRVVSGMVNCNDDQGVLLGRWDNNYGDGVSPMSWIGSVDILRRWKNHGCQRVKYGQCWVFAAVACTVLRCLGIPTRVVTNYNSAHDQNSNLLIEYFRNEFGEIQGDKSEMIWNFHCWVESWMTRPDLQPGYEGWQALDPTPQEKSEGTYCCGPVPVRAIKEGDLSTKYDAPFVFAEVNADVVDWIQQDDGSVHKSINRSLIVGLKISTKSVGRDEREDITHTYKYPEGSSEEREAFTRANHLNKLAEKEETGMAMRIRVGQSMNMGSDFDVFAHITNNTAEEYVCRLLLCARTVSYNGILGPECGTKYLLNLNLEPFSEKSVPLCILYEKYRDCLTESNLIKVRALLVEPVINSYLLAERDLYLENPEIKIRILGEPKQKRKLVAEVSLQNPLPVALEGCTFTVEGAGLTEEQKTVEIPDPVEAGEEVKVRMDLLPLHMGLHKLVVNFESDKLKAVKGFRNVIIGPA
Protocol: The switchSENSE® experiments were performed with a DRX^2 (Dynamic Biosensors, excitation 600–630 nm, emission 650–686 nm). All experiments were performed in TE40 (10 mM TRIS pH 7.4, 40 mM NaCl, 50 µM EDTA, 50 µM EGTA, 100 µM TCEP, 0.05% Tween 20) when not explicitly stated otherwise. For the dynamic mode measurements, the standard operation procedures as described in [56] were applied. For measurements of the kinetics of the interaction of both GTPγS and CaCl2 with hTGase 2, firstly, the ssDNA-hTGase 2 conjugate was hybridized for 360 s to the ssDNA capture strand on the gold microelectrodes of the chip. With 500 nM, the conjugate concentration was chosen relatively high to achieve full coverage of the electrodes. Secondly, 1000 µL of 20 nM GTPγS in TE40 were flushed over the electrodes, followed by about 4000 µL of TE40 (2000 µL/min), to obtain access to the association as well as the dissociation, respectively. Changes in the fluorescence intensity during the GTPγS interaction were recorded using fluorescence proximity sensing (static mode).
The formation of the protein–ligand complex of GTPγS and hTGase 2 can be represented by the reaction equation expressed by Equation (1). (1) P+L kon⇌koff PL
The concentration of the protein–ligand complex, [PL] , at a certain time of association ta is [PL]a . At the beginning of the association, there is no surface-bound complex present, i.e., [PL]=0 , and the ligand concentration is assumed to be constant at [L]=cGTPγS . This neglects diffusion limitation by assuming continuous replacement of the medium at the electrode surface in the microfluidic channel. Thus, the time-dependent equilibrium fraction reached at the association time ta can be expressed by Equation (2). For derivation, see Equations (S1) to (S5) in Supplementary Materials. (2) [PL]a/[PL]∞=1−e^−ka·ta
In Equation (2), [PL]∞ is the equilibrium concentration of the protein–ligand complex, and ka is the apparent rate constant in the association experiment, defined by Equation (3). (3) ka=cGTPγS kon+koff
During the dissociation, the concentration of the free ligand is assumed to be constantly zero. Consequently, Equation (6) should be valid (for derivation, see Equations (S7) to (S10) in Supplementary Materials). (6) [PL]d/[PL]d,0=e^−koff·td
Combining Equations (6) and (7), the time-dependent fluorescence intensity during the dissociation is given by Equation (8). (8) Fd=(Fd,s−Fd,e)(e^−koff·td)+Fd,e
Equations (5) and (8) were fitted to the measured fluorescence intensities of the association and dissociation experiments with 20 nM GTPγS, respectively. This was performed by a damped Gauss–Newton algorithm (see Equations (S12) and (S13) in Supplementary Materials) to determine the best-fit parameters, and consequently, kon and koff. The quotient koff/kon is the dissociation constant, Kd. Additionally, the standard errors of these parameters were estimated (Equations (S14) to (S21) in Supplementary Materials).

commercial His6-hTGase 2 = target: T2, commercial His6-hTGase 2 (Homo sapiens, UniProt P21980); experiment: fluorescence anisotropy (FA)-based transamidase activity assay, commercial His6-hTGase 2; format: biochemical
T2 construct: purchased Zedira (Darmstadt, Germany) T022, lot 0716a
T2 sequence (P21980 1-687): T1 sequence (P21980 1-687)
Protocol: For the analysis of inhibitor 1 on self-produced hTGase 2, 2 µg/mL of the enzyme was used to guarantee comparability with the value reported by Wodtke et al., whereas all other experiments were performed with 5 µg/mL of either commercial or self-produced hTGase 2 (corresponding to 64.1 and 61.6 nM, respectively, when assuming 100% active protein). Parallel and perpendicular fluorescence intensities were measured over 1190 s in 35 s intervals (1) or over 1776 s in 48 s intervals (2, 3) and used to calculate the FA. Data of FA for the first 875 s (1) or 384 s (2, 3) were analyzed by linear regression, with slopes corresponding to enzymatic rates. Rates in the presence of inhibitor were normalized by dividing them by the respective rate in the absence of inhibitor, and normalized rates were analyzed according to Equation (S29) in Supplementary Materials to calculate values of IC50. Data analysis was performed with Microsoft Excel (Microsoft Office Professional Plus 2016, Microsoft® Corporation, USA) and GraphPad Prism version 5.03 or version 6.07 for Windows (GraphPad Software, La Jolla, CA, USA).

[1] = His-tag-directed labeling of hTGase 2
[2] = non-directed labeling of hTGase 2

Structure (SMILES) | koff (hTGase 2; [1]) | kon (hTGase 2; [1]) | Kd (hTGase 2; [1]) [nM] | koff (hTGase 2; [2]) | kon (hTGase 2; [2]) | Kd (hTGase 2; [2]) [nM] | IC50 (commercial His6-hTGase 2; 5 min pre-incubation of enzyme and inhibitor, mean (SEM) of three experiments) [nM] | IC50 (commercial His6-hTGase 2; 30 min pre-incubation, hTGase 2 (Zedira) 64.1 nM, mean (SEM)) [nM] | ratio of the IC50 and the molar enzyme concentration (commercial His6-hTGase 2; FA assay, 30 min pre-incubation, range over in-house and commercial hTGase 2) | IC50 (commercial His6-hTGase 2; FA assay, 30 min pre-incubation, range over in-house and commercial hTGase 2 (62–64 nM)) [nM]
Nc1nc2c(ncn2[C@@H]2O[C@H](COP(=O)(O)OP(=O)(O)OP(O)(O)=S)[C@@H](O)[C@H]2O)c(=O)[nH]1 [GTPγS] | 1.9 ± 0.5 10^−2 s^−1 | 16 ± 2 10^6 M^−1 s^−1 | 1.2 ± 0.4 | 1.6 ± 0.6 10^−2 s^−1 | 17 ± 4 10^6 M^−1 s^−1 | 1 ± 0.4 | – | – | – | –
C=CC(=O)NCCCC[C@H](NC(=O)Cc1ccccc1I)C(=O)N1CCN(c2ccc([N+](=O)[O-])nc2)CC1 [Compound 2, N^α-(2-Iodophenylacetyl)-N^ε-acryloyl-L-lysin-4-(2-nitropyridin-5-yl)piperazide] | – | – | – | – | – | – | 154 | 47.4 | 0.57–0.74 | 35 to 47
